Laboratory results from paper PMC12057046, “Elucidation of short linear motif-based interactions of the MIT and rhodanese domains of the ubiquitin-specific protease 8” (Biology Direct, 2025).

What follows are sequences tested on USP8 MIT domain (assay: Peptide-phage display-based deep mutational scanning (DMS), USP8 MIT domain). Conditions: bait USP8_MIT__P40818_1_142; EFCAB12 (Q6NXP0) 2-17; pair of mutant with wild-type wt_00016 (MDDDYEAYHSLFLSLL); sheet S3.B_ProP-PD_pairs.
Type: binding, human
Procedure: The residues of these 16 amino acid-long wild-type peptides were substituted to all natural amino acid residues, except cysteine, in all positions (Supplementary Table S2A). The designed peptide sequences were reverse-translated to oligonucleotides optimized to the codon usage of E. coli. The required flanking regions (5´[…] and 3´[…]) were added for library construction. The library was generated as previously described.
Four rounds of phage selections were carried out using the second generation human disorderome library or the constructed deep mutational scanning library. At least three individual replicates were used for each bait protein. 10 µg of GST-tagged proteins or GST control (diluted in PBS from the stock of proteins kept in the purification elution buffer) were immobilized in 100 µL PBS on a 96-well MaxiSorp (Nunc) plate overnight at 4 °C. The plates were incubated with blocking buffer (with 0.5% BSA in PBS) for 1 h at 4 °C followed by washing with 0.05% Tween 20 in PBS four times. The naïve phage library (10^11 CFU) was diluted in 1/5th volume PEG/NaCl (20% PEG-8000, 0.4 M NaCl) and 1X PBS, incubated on ice for 10 min and centrifuged at 10,000 [drawing 3] g for 10 min. The pellet was resuspended in the volume of PBS (100 µL/ well). The GST-coated control plate was incubated with 100 µL library per well in PBS for 1 h at 4 °C to remove non-specific binders. The supernatant was transferred to the target wells and incubated for 2 h at 4 °C. The wells were washed five times with 0.05% Tween 20 in PBS and the bound phages were eluted with 100 µL per well log-phase E. coli OmniMAX by incubating at 37° C while shaking. After 30 min, M13KO7 helper phages were added and incubated for an additional 45 min. The bacterial cultures were transferred to 1 mL 2YT supplemented with 100 µg/mL carbenicillin, 30 µg/mL kanamycin and 0.3 mM IPTG and grew overnight at 37 °C while shaking. The following day the cultures were centrifuged for 10 min at 2,000 [drawing 4] g, 4 °C. 1/10th volume of 10 [drawing 5] PBS was added to adjust the pH and heated at 65 °C for 10 min. The phage pools from each round were used as in-phages for the next round of selections.
The samples were prepared for NGS as previously described. Peptide-coding regions of the enriched phage pools were amplified and barcoded using Phusion High-Fidelity PCR Master Mix (Thermo Fisher) for 22 cycles and confirmed by 2% agarose gel electrophoresis. The PCR products were normalized with 25 µL Mag-bind Total Pure NGS beads (Omega Biotek) and 10 µL of each eluted sample (Qiagen Elution Buffer) was pooled and cleaned-up with a PCR purification kit (Qiagen). The PCR product was confirmed by 2% agarose electrophoresis and the band was extracted with QIAquick Gel extraction Kit (Qiagen) and eluted with 30 µL TE buffer. The dsDNA was quantified using QuantiT PicoGreen dsDNA Assay Kit (Thermo Fisher) and sent for NGS (Illumina MiSeq v3, 1 × 150 bp read setup, 20% PhiX, NGI SciLifeLab facility, Sweden). The NGS data were demultiplexed, adapter regions were trimmed and sequences with an average quality of at least 20 were translated to peptide sequences. The NGS data were analysed using custom Python scripts. The total read NGS counts for each selection experiment of each peptide sequence were compiled and annotated in PepTools (https://slim.icr.ac.uk/tools/peptools/). Since ProP-PD is in essence a competition assay, the possibility of the input phage library influencing the selection outcome was explored. For this, the Pearson correlation coefficient, p-value and coefficient of determination were calculated for all peptide NGS count fractions in the library coverage vs. in the selections results (Supplementary Fig. S7; Supplementary Table S2B; Supplementary Table S3B; Supplementary Table S7B). Pearson correlation coefficient and p-value were calculated using Python’s SciPy library. […]

Sequence	hit_pair_ratio
QDDDYEAYHSLFLSLL [mut_04332]	3.38
MDDDYETYHSLFLSLL [mut_04443]	112.94
MRDDYEAYHSLFLSLL [mut_04351]	4.58
MDDDIEAYHSLFLSLL [mut_04399]	3.38
MDDLYEAYHSLFLSLL [mut_04382]	337.92
MDDDYENYHSLFLSLL [mut_04438]	2.33
MDDDYEEYHSLFLSLL [mut_04430]	4.58
MDDDQEAYHSLFLSLL [mut_04405]	14.11
MDDDDEAYHSLFLSLL [mut_04394]	12.10
MDQDYEAYHSLFLSLL [mut_04368]	8.05
MSDDYEAYHSLFLSLL [mut_04352]	67.69
MEDDYEAYHSLFLSLL [mut_04340]	16.11
LDDDYEAYHSLFLSLL [mut_04329]	1.88
MDDDYHAYHSLFLSLL [mut_04415]	84.48
MDDDYEFYHSLFLSLL [mut_04431]	83.09
MDDPYEAYHSLFLSLL [mut_04385]	4.13
NDDDYEAYHSLFLSLL [mut_04330]	17.85
MDDDYWAYHSLFLSLL [mut_04427]	2.20
MDDDFEAYHSLFLSLL [mut_04396]	37.55
MDDDYEMYHSLFLSLL [mut_04437]	59.15

Sequence	hit_pair_ratio
MDYDYEAYHSLFLSLL [mut_04374]	42.41
MQDDYEAYHSLFLSLL [mut_04350]	169.63
MGDDYEAYHSLFLSLL [mut_04342]	337.92
MDDDYEVYHSLFLSLL [mut_04444]	28.27
MDDDYAAYHSLFLSLL [mut_04411]	3.89
MADDYEAYHSLFLSLL [mut_04339]	13.05
MDHDYEAYHSLFLSLL [mut_04361]	6.06
MDDDYMAYHSLFLSLL [mut_04419]	112.64
MDDEYEAYHSLFLSLL [mut_04376]	3.28
MDLDYEAYHSLFLSLL [mut_04364]	2.51
MDDDYVAYHSLFLSLL [mut_04426]	112.64
MMDDYEAYHSLFLSLL [mut_04347]	37.58
MDDDYSAYHSLFLSLL [mut_04424]	84.48
EDDDYEAYHSLFLSLL [mut_04323]	6.98
MDSDYEAYHSLFLSLL [mut_04370]	42.24
SDDDYEAYHSLFLSLL [mut_04334]	56.39
MDDDYDAYHSLFLSLL [mut_04412]	12.14
MDDDYEPYHSLFLSLL [mut_04439]	9.13
MDGDYEAYHSLFLSLL [mut_04360]	5.59
MDDRYEAYHSLFLSLL [mut_04387]	84.48

Same assay, conditions: bait USP8_MIT__P40818_1_142; MLPH 482-497; ratio of averaged fractions of wild-type/mutant peptide pair, larger over smaller (direction to be read from the two fractions)

Sequence	hit_pair_ratio
SEVSDIESRIALLRAA	1.95
SEVSDIESRIMALRAA	6.39
SEVSDIESRIAASRAA	1.95
SEVFDIESRIAALRAA	1.56
SEVSNIESRIAALRAA	3.89
SEVSDIESRIAAARAA	3.89
SEVSDIESRIAALRMA	17.19
SEVSDHESRIAALRAA	1.54
SEVYDIESRIAALRAA	346.56
SEVSDIEPRIAALRAA	7.79
SEVEDIESRIAALRAA	7.79
SEVSDIESRIAALRWA	7.79
SEVQDIESRIAALRAA	3.89
SEVSDIESRIAATRAA	7.79
SEVSDIESRIAALRNA	7.79
SEVSDRESRIAALRAA	2.60
SEVSDIENRIAALRAA	1.11
SEVSDIKSRIAALRAA	3.89
SEVSEIESRIAALRAA	1.80
SEVSDIESRIAMLRAA	1.77
SEVSDIESRKAALRAA	7.79
SEVSDIESRIAALTAA	7.79
SEVSDFESRIAALRAA	49.08
SEVSDTESRIAALRAA	3.89
SEVSDVESRIAALRAA	7.79
SEVSDIEHRIAALRAA	4.62
SEVKDIESRIAALRAA	8.70
SEVSDIERRIAALRAA	1.35
SEVMDIESRIAALRAA	4.36
SEVSDIESRIAALRAF	7.79

Same assay, conditions: sheet S3.B_ProP-PD_pairs; bait USP8_MIT__P40818_1_142; ratio within the wild-type/mutant pair, larger over smaller averaged fraction (direction from fraction_wt and fraction_mut)

Sequence	hit_pair_ratio
MDDDYEAYHSLFLSLF	169.63
AEVSDIESRIAALRAA	40.88
MDDDYEAVHSLFLSLL	48.27
MDDDYEAYHSLFLWLL	2.95
SEASDIESRIAALRAA	1.11
NEVSDIESRIAALRAA	11.09
MDDDYEAYHSRFLSLL	172.84
MDDDYEAYSSLFLSLL	33.87
SEFSDIESRIAALRAA	1.28
MDDDYEAYHNLFLSLL	1.00
SLVSDIESRIAALRAA	1.11
SESSDIESRIAALRAA	3.89
MDDDYEAYYSLFLSLL	24.06
SRVSDIESRIAALRAA	3.31
MDDDYEAYFSLFLSLL	29.21
MDDDYEAYHSLFLPLL	337.92
MDDDYEAYHSLFLYLL	8.88

Sequence	hit_pair_ratio
MDDDYEWYHSLFLSLL	1.12
MDDDYEAYQSLFLSLL	28.27
SEISDIESRIAALRAA	2.51
MDDDYEAYHSLYLSLL	1.65
MDDDYEAYHLLFLSLL	17.79
MDDDYEAYHSKFLSLL	169.63
VEVSDIESRIAALRAA	3.36
MDDDYEAYHSLFLNLL	33.93
SETSDIESRIAALRAA	1.00
MDDDYEAYHSLALSLL	337.92
SEQSDIESRIAALRAA	5.24
MDDDYEAYWSLFLSLL	28.16
SEESDIESRIAALRAA	7.79
MDDDYEAYHSLFLMLL	26.03
MDDDYEAYHGLFLSLL	10.26
MDDDYEAYHTLFLSLL	169.63
